# Source: patent US8168651B2, “Protein kinase modulators” (Cylene Pharmaceuticals, Inc., priority 2008, dated 2012)
# Where two headings read alike, the source gives them in different places.
# Assays:
# [1] = test system: HCT-116 human colorectal carcinoma cells; experiment: Cell-proliferation assay using Alamar Blue dye; type: cell-based; settings: Homo sapiens;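 further: cells exposed to compound for about 4 days, then Alamar Blue added and dye fluorescence read after about 4 h, compared with medium-only control wells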
# recombinant human PIM1 = recombinant human PIM1 (Homo sapiens (Human), UniProt P11309); experiment: PIM-1 kinase activity in cell-free in vitro assay; type: biochemical; settings: for inhibition at 0.5 µM: 500 nM compound, read-out: PIM-1: % inh 500 nM
# [2] = HCT-116, read-out: HCT-116 (uM), cell proliferation modulatory activity, HCT-116, second column
# [3] = HCT-116, read-out: HCT-116 (uM), cell proliferation modulatory activity, HCT-116, first column
# [4] = HCT-116, HCT-116, second HCT-116 column (c8), read-out: HCT-116 (uM), cell proliferation modulatory activity
# [5] = HCT-116, HCT-116, first column, read-out: HCT-116 (uM), cell proliferation modulatory activity
# Sequence of recombinant human PIM1 (P11309 whole entry): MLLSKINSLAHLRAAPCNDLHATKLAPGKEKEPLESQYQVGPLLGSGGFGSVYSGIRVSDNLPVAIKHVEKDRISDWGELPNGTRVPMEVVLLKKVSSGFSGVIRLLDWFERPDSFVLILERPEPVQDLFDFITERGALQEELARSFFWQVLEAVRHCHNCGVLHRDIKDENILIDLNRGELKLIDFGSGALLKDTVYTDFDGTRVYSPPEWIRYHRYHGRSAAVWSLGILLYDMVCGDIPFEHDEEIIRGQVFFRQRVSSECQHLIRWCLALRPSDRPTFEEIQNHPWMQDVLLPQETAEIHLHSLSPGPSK
compound,measurement,setting,value
O=C(O)c1ccc2c(c1)nc(Nc1cc(Cl)ccc1F)c1ccsc12,IC50,[1]; [2],> 10 µM
same,inhibition at 0.5 µM,recombinant human PIM1; cell-free,52.8%
same,IC50,recombinant human PIM1; cell-free,0.42 µM
COc1ccccc1Nc1nc2cc(C(=O)O)ccc2c2sccc12,IC50,[1]; [3],10 µM
same,inhibition at 0.5 µM,recombinant human PIM1; cell-free,0.445%
NCc1ccc(Nc2nc3c(-c4nnc[nH]4)cccc3c3cnccc23)c(Cl)c1,IC50,recombinant human PIM1,< 0.1 µM
O=C(O)c1ccc2c(c1)nc(Nc1cccc(C(=O)N3CCOCC3)c1)c1ccsc12,IC50,[1]; [2],> 10 µM
same,inhibition at 0.5 µM,recombinant human PIM1; cell-free,46.4%
CNC(=O)Cc1cccc(Nc2nc3cc(C(=O)O)ccc3c3sccc23)c1,IC50,[1]; [2],> 10 µM
same,inhibition at 0.5 µM,recombinant human PIM1; cell-free,38%
C#Cc1cccc(Nc2nc3cc(C(=O)O)ccc3c3cnc(NCCOC)nc23)c1,IC50,"[1]; HCT-116, read-out: HCT-116 (uM), cell proliferation modulatory activity, HCT-116, second HCT-116 column (c8)",8.05 µM
same,inhibition at 0.5 µM,recombinant human PIM1; cell-free assay,55.5%
same,IC50,recombinant human PIM1; cell-free assay,> 1.1 µM
CN1CCN(c2nc3cc(C(=O)NCc4cncn4C)ccc3c3sccc23)CC1,IC50,[1]; [4],> 10 µM
same,inhibition at 0.5 µM,recombinant human PIM1; cell-free assay,-22.5%
CN(C)CCNc1nc2cc(-c3nnn[nH]3)ccc2c2cnccc12,inhibition at 0.5 µM,recombinant human PIM1; cell-free,38.1%
O=C(O)c1ccc2c(c1)nc(OCCCO)c1ccccc12 [drawing 1388],IC50,[1]; [5],10 µM
same,inhibition at 0.5 µM,recombinant human PIM1; cell-free,1.05%
c1ccc(Nc2nc3cc(-c4nnn[nH]4)ccc3c3ccccc23)cc1,IC50,[1]; [5],10 µM
same,inhibition at 0.5 µM,recombinant human PIM1; cell-free,15.8%
COc1ccc(Nc2nc3cc(C(=O)O)ccc3c3sccc23)c(OC)c1,IC50,[1]; [3],10 µM
same,inhibition at 0.5 µM,recombinant human PIM1; cell-free,3.88%
N#Cc1ccc2c(c1)nc(OCCCO)c1ccccc12,IC50,[1]; [5],10 µM
same,inhibition at 0.5 µM,recombinant human PIM1; cell-free,3.04%
N#Cc1ccc2c(c1)nc(Nc1ccccc1)c1ccccc12,IC50,[1]; [5],10 µM
same,inhibition at 0.5 µM,recombinant human PIM1; cell-free,-65.4%
O=C(O)CCNc1ncc2c(n1)c(Nc1cccc(Cl)c1)nc1cc(C(=O)O)ccc12,inhibition at 0.5 µM,recombinant human PIM1; cell-free assay,24.2%
C#Cc1cccc(Nc2nc3cc(C(=O)O)ccc3c3sccc23)c1,inhibition at 0.5 µM,recombinant human PIM1; cell-free,26%
O=C(O)c1ccc2c(c1)nc(Nc1ccc(F)cc1)c1ccsc12,IC50,[1]; [3],10 µM
same,inhibition at 0.5 µM,recombinant human PIM1; cell-free,66.7%
same,IC50,recombinant human PIM1; cell-free,0.32 µM
N#Cc1cccc2c1nc(Nc1cccc(Cl)c1)c1ccncc12,IC50,recombinant human PIM1; Table 45,> 1.1 µM
O=C(NCc1cccnc1)c1cccc(Nc2nc3cc(-c4nnn[nH]4)ccc3c3sccc23)c1,IC50,[1]; [2],> 10 µM
same,inhibition at 0.5 µM,recombinant human PIM1; cell-free,29.6%
O=C(O)c1ccc2c(c1)nc(Nc1ccccc1)c1nc(NC3CCNCC3)ncc12,inhibition at 0.5 µM,recombinant human PIM1; cell-free assay,-2.53%
C#Cc1cccc(Nc2nc3cc(C(=O)OC)ccc3c3cnc(NOC)nc23)c1,inhibition at 0.5 µM,recombinant human PIM1; cell-free assay,0.371%
CC(=O)Nc1cccc(Nc2nc3cc(-c4nnn[nH]4)ccc3c3sccc23)c1,inhibition at 0.5 µM,recombinant human PIM1; cell-free,27.1%
c1cc2c(Nc3ccc4c(c3)OCCO4)nc3cc(-c4nnn[nH]4)ccc3c2s1,IC50,[1]; [2],> 10 µM
same,inhibition at 0.5 µM,recombinant human PIM1; cell-free,26.7%
NS(=O)(=O)c1cccc(Nc2nc3cc(C(=O)O)ccc3c3sccc23)c1,IC50,[1]; [2],> 10 µM
same,inhibition at 0.5 µM,recombinant human PIM1; cell-free,21.7%
O=C(O)c1ccc2c(c1)nc(NCc1ccncc1)c1ccsc12,IC50,[1]; [3],10 µM
same,inhibition at 0.5 µM,recombinant human PIM1; cell-free,71.3%
CCC(c1ccccc1)c1nc2cc(C(=O)O)ccc2c2sccc12 (stereo not shown),IC50,[1]; [5],10 µM
same,inhibition at 0.5 µM,recombinant human PIM1; cell-free,35.4%
CC(C)Oc1cccc(Nc2nc3cc(-c4nnn[nH]4)ccc3c3sccc23)c1,IC50,[1]; [2],> 10 µM
same,inhibition at 0.5 µM,recombinant human PIM1; cell-free,31.9%
O=C(O)c1ccc2c(c1)nc(Nc1cccc(Oc3ccccc3)c1)c1ccsc12,IC50,[1]; [2],> 10 µM
same,inhibition at 0.5 µM,recombinant human PIM1; cell-free,-10.2%
Clc1ccc(Nc2nc3cc(-c4nnn[nH]4)ccc3c3sccc23)cc1,IC50,[1]; [3],10 µM
same,inhibition at 0.5 µM,recombinant human PIM1; cell-free,66.4%
same,IC50,recombinant human PIM1; cell-free,0.501 µM
O=C(O)c1ccc2c(c1)nc(Nc1cccc(S(=O)(=O)NC3CC3)c1)c1ccsc12,IC50,[1]; [2],> 10 µM
same,inhibition at 0.5 µM,recombinant human PIM1; cell-free,75.4%
same,IC50,recombinant human PIM1; cell-free,0.568 µM
COc1ccc(Nc2nc3cc(-c4nnn[nH]4)ccc3c3sccc23)cc1Cl,IC50,[1]; [3],10 µM
same,inhibition at 0.5 µM,recombinant human PIM1; cell-free,25.6%
COc1ccc(Nc2nc3cc(-c4nnn[nH]4)ccc3c3sccc23)cc1OC,IC50,"[1]; HCT-116, HCT-116, second column, read-out: HCT-116 (uM), cell proliferation modulatory activity",> 10 µM
same,inhibition at 0.5 µM,recombinant human PIM1; cell-free,55.5%
same,IC50,recombinant human PIM1; cell-free,0.809 µM
Clc1cccc(Nc2nc3c(-c4nnco4)cccc3c3cnccc23)c1,IC50,recombinant human PIM1; Table 45,> 1.1 µM
CN1CCN(c2nc3cc(C(=O)NCC4CCCO4)ccc3c3sccc23)CC1 (stereo not shown),IC50,[1]; [4],> 10 µM
same,inhibition at 0.5 µM,recombinant human PIM1; cell-free assay,11%
CC(=O)N1CCN(C(=O)c2cccc(Nc3nc4cc(-c5nnn[nH]5)ccc4c4sccc34)c2)CC1,IC50,[1]; [2],> 10 µM
same,inhibition at 0.5 µM,recombinant human PIM1; cell-free,48.4%
COc1cc(Nc2nc3cc(-c4nnn[nH]4)ccc3c3sccc23)ccc1F,IC50,[1]; [2],> 10 µM
same,inhibition at 0.5 µM,recombinant human PIM1; cell-free,35%
O=C(O)c1ccc2c(c1)nc(N1CCN(c3cnccn3)CC1)c1ccncc12,inhibition at 0.5 µM,recombinant human PIM1; cell-free assay,-2.36%
OCCCOc1nc2cc(-c3nnn[nH]3)ccc2c2ccccc12,IC50,[1]; [5],10 µM
same,inhibition at 0.5 µM,recombinant human PIM1; cell-free,40.8%
O=C(O)c1ccc2c(c1)nc(Nc1ccc3cc[nH]c3c1)c1ccsc12,IC50,[1]; [2],> 10 µM
same,inhibition at 0.5 µM,recombinant human PIM1; cell-free,47.2%
Cc1cccc(Nc2nc3cc(-c4nnn[nH]4)ccc3c3sccc23)c1,inhibition at 0.5 µM,recombinant human PIM1; cell-free,58%
same,IC50,recombinant human PIM1; cell-free,0.386 µM
COCCOc1cccc(Nc2nc3c(C(N)=O)cccc3c3cnccc23)c1,IC50,recombinant human PIM1; Table 45,< 0.5 µM
c1ccc(Nc2nc3cc(-c4nnn[nH]4)ccc3c3cnccc23)cc1,inhibition at 0.5 µM,recombinant human PIM1; cell-free,33.1%
O=C(O)c1cccc(Nc2nc3cc(-c4nnn[nH]4)ccc3c3sccc23)c1,inhibition at 0.5 µM,recombinant human PIM1; cell-free,58%
same,IC50,recombinant human PIM1; cell-free,0.648 µM
CN(C)CCNC(=O)c1cccc2c1nc(Nc1cccc(Cl)c1)c1ccncc12,IC50,recombinant human PIM1; Table 45,> 1.1 µM
O=C(Nc1ccccc1)c1cccc2c1nc(Nc1cccc(Cl)c1)c1ccncc12,IC50,recombinant human PIM1; Table 45,> 1.1 µM
CCCNC(=O)c1cccc(Nc2nc3cc(-c4nnn[nH]4)ccc3c3sccc23)c1,inhibition at 0.5 µM,recombinant human PIM1; cell-free,47.7%
O=C(c1cccc2c1nc(Nc1cccc(Cl)c1)c1ccncc12)N1CCOCC1,IC50,recombinant human PIM1; Table 45,> 1.1 µM
O=C(O)c1cccc2c1nc(Nc1cccc(Cl)c1)c1ccncc12 [drawing 2271],IC50,recombinant human PIM1; Table 45,> 1.1 µM
CN(C)C(=O)c1cccc2c1nc(Nc1cccc(Cl)c1)c1ccncc12,IC50,recombinant human PIM1; Table 45,> 1.1 µM
CCOc1ncc2c(n1)c(Nc1cccc(C(F)(F)F)c1)nc1cc(C(=O)O)ccc12,inhibition at 0.5 µM,recombinant human PIM1; cell-free assay,-5%
O=C(O)c1ccc2c(c1)nc(Nc1cccc(Cl)c1)c1nc(O)ncc12,inhibition at 0.5 µM,recombinant human PIM1; cell-free assay,3.53%
COC(=O)c1cccc2c1nc(Nc1ccccc1)c1ccncc12 [drawing 2272],IC50,recombinant human PIM1; Table 45,> 1.1 µM
Fc1cc(Nc2nc3cc(-c4nnn[nH]4)ccc3c3cnccc23)ccc1Cl,inhibition at 0.5 µM,recombinant human PIM1; cell-free,9.3%
COC(=O)c1cccc2c1nc(Nc1cccc(Cl)c1)c1ccncc12,IC50,recombinant human PIM1; Table 45,> 1.1 µM
CC(C)Nc1ncc2c(n1)c(Nc1cccc(Cl)c1)nc1cc(C(=O)O)ccc12,inhibition at 0.5 µM,recombinant human PIM1; cell-free assay,-0.505%
O=C(O)c1ccc2c(c1)nc(Nc1cccc(F)c1)c1nc(NC3CC3)ncc12,inhibition at 0.5 µM,recombinant human PIM1; cell-free assay,59.3%
Cc1ncc2c(n1)c(Nc1cccc(Cl)c1)nc1cc(C(=O)O)ccc12,inhibition at 0.5 µM,recombinant human PIM1; cell-free assay,12.9%
NNC(=O)c1cccc2c1nc(Nc1cccc(Cl)c1)c1ccncc12,IC50,recombinant human PIM1; Table 45,< 5 µM
OCc1cccc2c1nc(Nc1cccc(Cl)c1)c1ccncc12,IC50,recombinant human PIM1; Table 45,< 1 µM
O=C(NC1CC1)c1cccc2c1nc(Nc1cccc(Cl)c1)c1ccncc12,IC50,recombinant human PIM1; Table 45,> 1.1 µM
O=C(O)c1cccc2c1nc(Nc1cccc(Cl)c1)c1cnccc12,IC50,recombinant human PIM1; Table 45,> 1.1 µM
CN1CCN(c2ccc(Nc3nc4c(-c5nnc[nH]5)cccc4c4cnccc34)cc2)CC1,IC50,recombinant human PIM1,< 0.5 µM
CNC(=O)c1cccc2c1nc(Nc1cccc(Cl)c1)c1ccncc12 [drawing 2277],IC50,recombinant human PIM1; Table 45,> 1.1 µM
FC(F)(F)Oc1cccc(Nc2nc3cc(-c4nnn[nH]4)ccc3c3sccc23)c1,inhibition at 0.5 µM,recombinant human PIM1; cell-free,30.7%
COc1ccc(OC)c(Nc2nc3cc(-c4nnn[nH]4)ccc3c3sccc23)c1,inhibition at 0.5 µM,recombinant human PIM1; cell-free,21.8%
COC(=O)c1cccc2c1nc(Cl)c1ccncc12 [drawing 2270],IC50,recombinant human PIM1; Table 45,> 1.1 µM
CONC(=O)c1cccc2c1nc(Nc1cccc(Cl)c1)c1ccncc12,IC50,recombinant human PIM1; Table 45,> 1.1 µM
c1cc(-c2nnc[nH]2)c2nc(N3CCOCC3)c3ccncc3c2c1,IC50,recombinant human PIM1,3.97 µM
O=C(O)c1cccc2c1nc(Nc1ccccc1)c1ccncc12 [drawing 2273],IC50,recombinant human PIM1; Table 45,> 1.1 µM
COCCNC(=O)c1cccc2c1nc(Nc1cccc(Cl)c1)c1ccncc12,IC50,recombinant human PIM1; Table 45,> 1.1 µM
CCN(CC)CCNc1ncc2c(n1)c(Nc1ccccc1)nc1cc(C(=O)O)ccc12,inhibition at 0.5 µM,recombinant human PIM1; cell-free assay,4.27%
O=C(O)c1ccc2c(c1)nc(Nc1cccc(Cl)c1)c1ccsc12,inhibition at 0.5 µM,recombinant human PIM1; cell-free,81.1%
same,IC50,recombinant human PIM1; cell-free,0.391 µM
O=C(NCc1ccccc1)c1cccc2c1nc(Nc1cccc(Cl)c1)c1ccncc12,IC50,recombinant human PIM1; Table 45,> 1.1 µM
